Patent US5952327A, “Phosphonic acid-substituted benzazepinone-n-acetic acid derivatives process for their preparation and pharmaceutical compositions comprising them” (Solvay Pharmaceuticals GmbH, priority 1997, dated 1999)

Key:
[1] = system: endothelin-converting enzyme (ECE); assay: In-vivo ECE inhibitory action: blood pressure increase induced by BIG-ET in rats; set-up: species or system male CD rats
Description: ET is an endogenous strongly vasoconstrictory active substance. An increase in the ET level leads to a blood pressure increase. On infusion of BIG-ET, a blood pressure increase takes place to the extent at which ET is formed from this by ECE-catalysed cleavage. As a measure of the ECE-inhibitory action of the substances, their inhibitory action on the blood pressure increase induced by infusion of BIG-ET was determined.
The experiments were carried out using male CD® rats from Charles River Wiga having a body weight of 220-280 g. Under ketamine/xylazine anaesthesia, a catheter for substance administration was tied into the left jugular vein and a second for the measurement of the blood pressure was tied into the left carotid artery of the animals. After a recovery time of 30 minutes, the test substance was administered intravenously (i.v.) or intraduodenally (i.d.) to the animals as a solution. After administration of the test substances, the animals each received BIG-ET in a dose of 0.5 nmole/kg intravenously. The period between administration of the test substance and the administration of BIG-ET was 5 minutes in each case on i.v. administration, 15 minutes in each case on i.d. administration of the test substances of Example Nos. 18 and 22, and 30 minutes in each case on i.d. administration of the test substances of Example Nos. 8 and 20. During the next 30 minutes, the systolic and the diastolic blood pressure were recorded every 5 minutes. With untreated animals, the infusion of 0.5 nmol/kg of big endothelin leads reproducibly to a drastic blood pressure increase, which lasts about 30 minutes. The maximum of the blood pressure increase is reached after about 5 minutes.
In the following Table 2, the maximum increase in the blood pressure after BIG-ET administration is indicated for control animals treated with placebo solution and for animals which have been pretreated with the test substance solutions in different doses.

[2] = system: diuresis/natriuresis in volume-loaded rats; assay: In-vivo effect on diuresis/natriuresis in volume-loaded rats; set-up: species or system male Wistar rats; details: 60 min collection
Description: The in-vivo activity was investigated in volume-loaded rats. In this experiment, a high cardiac filling pressure was produced by an infusion of isotonic sodium chloride solution, as a consequence of which ANP release and, as a result, diuresis/natriuresis occurred.
The experiments were carried out using male Wistar rats having a body weight of 200-400 g. Under neuroleptic analgesia (fentanyl; Hypnorm®, manufacturer Janssen), a catheter was tied into the right femoral vein for the background infusion and the volume loading with isotonic sodium chloride solution. After opening the abdomen, a second catheter was inserted in the bladder and the urethra was tied off so that a measurement of urinary volume, natriuresis and kaliuresis was possible.
The abdomen was closed again, and the animals received a continuous infusion of sodium chloride solution (0.5 ml/100 g of body weight) over the total experimental period of 2 hours. After an equilibration period of 30 minutes, urine samples were collected three times in each case over a period of 10 minutes in a preliminary phase before test substance administration. These preliminary values ("predrug" values) were determined in order to check that a continuous urine flow was taking place in the test animals.
The solutions comprising the test substances were then administered intravenously (bolus injection in the femoral vein) or orally (by means of stomach tube) to groups of 10 rats in each case. For both administration forms, one control animal group in each case received only placebo solutions which contained no active compound. 5 minutes after i.v. administration or 120 minutes after oral administration of the substances, the rats were loaded i.v. with an increased volume of sodium chloride solution (2 ml/100 g of body weight in 2 minutes) and the urine was collected over a period of 60 minutes. The amounts of urine produced in this period were determined, and the sodium and potassium contents contained therein were measured. From the amounts of urine produced, the increase in excretion which took place under volume loading is read off compared with the preliminary values.
In the following Table 1, the increases in urine excretion which have taken place under volume loading after administration of the test substances are indicated in % relative to the urine excretion which has taken place under volume loading after administration of placebo. Furthermore, the amounts of sodium and potassium excreted under volume loading after test substance administration are also indicated in % of the amounts of sodium and potassium excreted under volume loading after administration of placebo. The example numbers in Tables 1 and 2 relate to the subsequent synthesis examples.

[3] = Determination of the minimum toxic dose (i.v.) in rats; assay type: in vivo; details: 215 mg/kg i.v., observed for one week
Description: I.v. maximum doses of 215 mg/kg of the test substances (dissolved in 0.1 N aqueous NaOH solution, whose pH had been adjusted to 7.1) were administered to groups of 10 rats each of 250 g body weight (age 5 to 6 weeks). From the time of administration, the animals were carefully observed for 5 hours for clinically recognizable signs of toxicity. Moreover, they were observed twice daily until one week had passed. After expiry of this week, each individual animal was completely dissected and all organs were examined macroscopically. If death or severe toxic symptoms was observed, increasingly smaller doses were administered to further rats until toxic symptoms no longer occured. The lowest dose which caused death or severe toxic symptoms was determined to be the minimum toxic dose.

[4] = target: neutral endopeptidase (NEP) (E.C. 3.4.24.11) (Homo sapiens, UniProt P08473); assay: In-vitro NEP inhibitory action (hydrolytic degradation of Met-encephalin); assay type: biochemical; details: purified NEP, Met-encephalin substrate, pH 7.4, 37° C.; read-out: IC50 value for NEP inhibition
neutral endopeptidase (NEP) (E.C. 3.4.24.11), sequence (P08473 whole entry, species assumed): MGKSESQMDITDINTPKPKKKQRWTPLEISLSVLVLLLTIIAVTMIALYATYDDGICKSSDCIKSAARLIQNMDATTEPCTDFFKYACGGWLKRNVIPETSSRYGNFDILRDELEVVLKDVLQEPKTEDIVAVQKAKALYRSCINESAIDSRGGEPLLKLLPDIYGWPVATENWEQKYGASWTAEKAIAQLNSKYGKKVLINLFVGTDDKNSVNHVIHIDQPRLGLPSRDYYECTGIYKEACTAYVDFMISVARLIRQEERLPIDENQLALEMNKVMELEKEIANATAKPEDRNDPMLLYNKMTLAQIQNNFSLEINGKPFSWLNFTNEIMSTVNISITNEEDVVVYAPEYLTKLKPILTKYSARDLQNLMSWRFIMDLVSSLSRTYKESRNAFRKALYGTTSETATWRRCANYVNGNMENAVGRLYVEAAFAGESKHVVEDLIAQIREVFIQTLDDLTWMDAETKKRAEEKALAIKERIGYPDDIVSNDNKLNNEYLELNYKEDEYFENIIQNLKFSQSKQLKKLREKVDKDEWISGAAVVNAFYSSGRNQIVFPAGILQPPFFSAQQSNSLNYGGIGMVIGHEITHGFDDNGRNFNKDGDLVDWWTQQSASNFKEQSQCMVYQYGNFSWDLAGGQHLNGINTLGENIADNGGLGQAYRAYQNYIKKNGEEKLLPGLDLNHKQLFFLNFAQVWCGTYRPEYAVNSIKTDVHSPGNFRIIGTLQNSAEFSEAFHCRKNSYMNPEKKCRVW
Description: In this test, the measure of the inhibitory activity of the substances determined was their IC50 value. The IC50 value of a test substance having enzyme-inhibitory activity is that concentration of the test substance at which 50% of the enzymatic activity of the NEP is blocked.
To carry out the test, respective 100 μl samples of various incubation solutions comprising 10 ng of purified NEP (E.C. 3.4.24.11) and different amounts of test substance and 20 μl substrate (Met-encephalin) and 50 mM tris buffer (tris(hydroxymethyl)aminomethane/HCl, pH 7.4) were prepared. […]
The incubation solutions were incubated for 30 minutes at 37° C. in a shaking water bath. […] The stopped incubation solution was then centrifuged at 12,000×g for 3 minutes, and the concentrations of unreacted substrate and of hydrolysis products formed by the enzymatic reaction were determined in the supernatant. For this purpose, samples of the respective supernatants were separated by high-pressure liquid chromatography (HPLC) on hydrophobicized silica gel, and the products of the enzymatic reaction and unreacted substrate were determined photometrically at a wavelength of 205 nm. […]
The IC50 value of the test substances was calculated in a known manner from the concentrations of hydrolysis products and unreacted substrate measured in the different samples.

[5] = 30 μmol/kg i.d., 30 min before BIG-ET 0.5 nmole/kg i.v., control 40
[6] = 30 μmol/kg i.d., 30 min before BIG-ET 0.5 nmole/kg i.v., control 61
[7] = 30 μmol/kg i.d., 15 min before BIG-ET 0.5 nmole/kg i.v., control 40
[8] = 30 μmol/kg i.d., 15 min before BIG-ET 0.5 nmole/kg i.v., control 61

Structure (SMILES) | Blood pressure increase after BIG-ET administration, diastolic pressure (maximum) [1, 5] | Blood pressure increase after BIG-ET administration, systolic pressure (maximum) [1, 6] | Blood pressure increase after BIG-ET administration, diastolic pressure (maximum) [1, 7] | Blood pressure increase after BIG-ET administration, systolic pressure (maximum) [1, 8] | Increase in urine excretion under volume loading after administration of test substance in % relative to the urine excretion under volume loading after administration of placebo ([2]; 30.0 μmole/kg p.o.) | K excretion under volume loading: amount excreted after administration of test substance in % of the amount excreted after administration of placebo ([2]; 30.0 μmole/kg p.o.) | Na excretion under volume loading: amount excreted after administration of test substance in % of the amount excreted after administration of placebo ([2]; 30.0 μmole/kg p.o.) | other results
CC(C)(C)OC(=O)CN1C(=O)[C@@H](NC(=O)C2(CP(=O)(O)O)CCCC2)CCc2ccccc21 [Example 20, tert-Butyl (3S)-3-[1-phosphonomethylcyclopentane-1-carbonylamino)-2,3,4,5-tetrahydro-2-oxo-1H-1-benzazepine-1-acetate] | 37 mm Hg | 50 mm Hg |  |  |  |  |  | 
CCOP(=O)(CC1(C(=O)N[C@H]2CCc3ccccc3N(CC(=O)OC(C)(C)C)C2=O)CCCC1)OCOC(=O)C(C)(C)C (stereo partly drawn) [Example 18, tert-Butyl (3S)-3-[1-(pivaloyloxymethylethylphosphono-methyl)cyclopentane-1-carbonylamino]-2,3,4,5-tetrahydro-2-oxo-1H-benzazepine-1-acetate] |  |  | 17 mm Hg | 19 mm Hg |  |  |  | 
CCOC(=O)CN1C(=O)[C@@H](NC(=O)C2(CP(=O)(O)O)CCCC2)CCc2ccccc21 [Example 13, Ethyl (3S)-3-(1-phosphonomethylcyclopentane-1-carbonylamino)-2,3,4,5-tetrahydro-2-oxo-1H-1-benzazepine-1-acetate] |  |  |  |  | 168% | 87% | 128% | 
CCOP(=O)(CC1(C(=O)N[C@H]2CCc3ccccc3N(CC(=O)OC(C)(C)C)C2=O)CCCC1)OCc1ccccc1 (stereo partly drawn) [Example 8, tert-Butyl (3S)-3-(1-benzylethylphosphonomethylcyclopentane-1-carbonylamino)-2,3,4,5-tetrahydro-2-oxo-1H-1-benzazepine-1-acetate] | 26 mm Hg | 25 mm Hg |  |  |  |  |  | 
CCOP(=O)(O)CC1(C(=O)NC2CCc3ccccc3N(CC(=O)O)C2=O)CCCC1 (stereo not shown) [Example 22] |  |  | 21 mm Hg | 36 mm Hg | 127% | 106% | 161% | 
O=C(O)CN1C(=O)[C@@H](NC(=O)C2(CP(=O)(O)O)CCCC2)CCc2ccccc21 [Example 2, (3S)-3-(1-Phosphonomethylcyclopentane-1-carbonylamino)-2,3,4,5-tetrahydro-2-oxo-1H-1-benzazepine-1-acetic acid] |  |  |  |  |  |  |  | signs of toxicity at maximum dose [3]: no significant signs of toxicity; IC50 [4]: 1.7 nM; Increase in urine excretion under volume loading after administration of test substance in % relative to the urine excretion under volume loading after administration of placebo ([2]; 6.0 μmole/kg i.v.): 117%; K excretion under volume loading: amount excreted after administration of test substance in % of the amount excreted after administration of placebo ([2]; 6.0 μmole/kg i.v.): 116%; Na excretion under volume loading: amount excreted after administration of test substance in % of the amount excreted after administration of placebo ([2]; 6.0 μmole/kg i.v.): 147%; Increase in urine excretion under volume loading after administration of test substance in % relative to the urine excretion under volume loading after administration of placebo ([2]; 20.0 μmole/kg i.v.): 149%; K excretion under volume loading: amount excreted after administration of test substance in % of the amount excreted after administration of placebo ([2]; 20.0 μmole/kg i.v.): 182%; Na excretion under volume loading: amount excreted after administration of test substance in % of the amount excreted after administration of placebo ([2]; 20.0 μmole/kg i.v.): 246%; Blood pressure increase after BIG-ET administration, diastolic pressure (maximum) ([1]; 1 mg/kg i.v., 5 min before BIG-ET 0.5 nmole/kg i.v., control 32): 23 mm Hg; Blood pressure increase after BIG-ET administration, systolic pressure (maximum) ([1]; 1 mg/kg i.v., 5 min before BIG-ET 0.5 nmole/kg i.v., control 65): 38 mm Hg; Blood pressure increase after BIG-ET administration, diastolic pressure (maximum) ([1]; 3 mg/kg i.v., 5 min before BIG-ET 0.5 nmole/kg i.v., control 32): 14 mm Hg; Blood pressure increase after BIG-ET administration, systolic pressure (maximum) ([1]; 3 mg/kg i.v., 5 min before BIG-ET 0.5 nmole/kg i.v., control 65): 27 mm Hg; Blood pressure increase after BIG-ET administration, diastolic pressure (maximum) ([1]; 10 mg/kg i.v., 5 min before BIG-ET 0.5 nmole/kg i.v., control 32): 0.4 mm Hg; Blood pressure increase after BIG-ET administration, systolic pressure (maximum) ([1]; 10 mg/kg i.v., 5 min before BIG-ET 0.5 nmole/kg i.v., control 65): -1 mm Hg
